Test results published in patent publication US8802597B2, “Herbicidal pyrimidines” (E I du Pont de Nemours and Company, priority 2003, dated 2014).
Read-outs that look alike come from different tables or passages of the source.

Experiments:
Assay type in all cases: in vivo
wild oat (Avena fatua) = assay: Test B postemergence; conditions: Avena fatua, post-emergence
Procedure, shortened: (§1)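 Visual rating, 0 (no effect) to 100 (complete control) versus controls, taken 13–15 days after treatment in greenhouse. Compounds formulated in non-phytotoxic solvent plus surfactant; pre: sprayed after seeding; post: plants at 1- to 4-leaf stage, 2–18 cm.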

[1] = tested on: blackgrass (Alopecurus myosuroides); assay: Test B postemergence; conditions: Alopecurus myosuroides, post-emergence
Procedure, shortened: as §1

[2] = tested on: umbrella sedge (Cyperus difformis); assay: Test B flooded paddy test; conditions: Cyperus difformis, Flood, 1000 g ai/ha; scale 0 to 100; read-out: Plant response rating, Sedge, Umbrella
Procedure, shortened: (§2)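 Visual injury scoring (0 = no effect, 100 = complete control) versus controls made 13 to 15 days after treatment in the greenhouse. Test species were grown in flooded paddy to the 2-leaf stage: rice, barnyardgrass, umbrella sedge, duck salad.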

[3] = tested on: duck salad (Heteranthera limosa); assay: Test B flooded paddy test; conditions: Heteranthera limosa, Flood, 1000 g ai/ha; scale 0 to 100; read-out: Plant response rating, Ducksalad
Procedure, shortened: as §2

rice (Oryza sativa) = assay: Test B flooded paddy test; conditions: Oryza sativa, Flood, 1000 g ai/ha; scale 0 to 100; read-out: Plant response rating, Rice
Procedure, shortened: as §2

[4] = tested on: barnyardgrass (Echinochloa crus-galli); assay: Test B flooded paddy test; conditions: Echinochloa crus-galli, Flood, 1000 g ai/ha; scale 0 (no effect) to 100 (complete control); read-out: Plant response rating, Barnyardgrass
Procedure, shortened: as §2

[5] = tested on: wheat (Triticum aestivum); assay: Test B pre/postemergence; conditions: Triticum aestivum; for plant injury at 62 g/ha: 62 g ai/ha; for plant injury at 250 g/ha: 250 g ai/ha
Procedure, shortened: as §1

[6] = tested on: velvetleaf (Abutilon theophrasti); assay: Test B pre/postemergence; conditions: Abutilon theophrasti; for pest or weed control at 62 g/ha: 62 g ai/ha; for pest or weed control at 250 g/ha: 250 g ai/ha
Procedure, shortened: as §1

[7] = tested on: barnyardgrass (Echinochloa crus-galli); assay: Test B pre/postemergence; conditions: Echinochloa crus-galli; for pest or weed control at 62 g/ha: 62 g ai/ha; for pest or weed control at 250 g/ha: 250 g ai/ha
Procedure, shortened: as §1

[8] = tested on: giant foxtail (Setaria faberii); assay: Test B pre/postemergence; conditions: Setaria faberi; for pest or weed control at 62 g/ha: 62 g ai/ha; for pest or weed control at 250 g/ha: 250 g ai/ha
Procedure, shortened: as §1

[9] = tested on: pigweed (Amaranthus retroflexus); assay: Test B pre/postemergence; conditions: Amaranthus retroflexus; for pest or weed control at 62 g/ha: 62 g ai/ha; for pest or weed control at 250 g/ha: 250 g ai/ha
Procedure, shortened: as §1

[10] = tested on: crabgrass (Digitaria sanguinalis); assay: Test B pre/postemergence; conditions: Digitaria sanguinalis; for pest or weed control at 62 g/ha: 62 g ai/ha; for pest or weed control at 250 g/ha: 250 g ai/ha
Procedure, shortened: as §1

[11] = tested on: Surinam grass (Brachiaria decumbens); assay: Test B pre/postemergence; conditions: Urochloa decumbens; for pest or weed control at 62 g/ha: 62 g ai/ha; for pest or weed control at 250 g/ha: 250 g ai/ha
Procedure, shortened: as §1

[12] = tested on: cocklebur (Xanthium strumarium); assay: Test B pre/postemergence; conditions: Xanthium strumarium; for pest or weed control at 62 g/ha: 62 g ai/ha; for pest or weed control at 250 g/ha: 250 g ai/ha
Procedure, shortened: as §1

[13] = tested on: morningglory (Ipomoea coccinea); assay: Test B pre/postemergence; conditions: Ipomoea; for pest or weed control at 62 g/ha: 62 g ai/ha; for pest or weed control at 250 g/ha: 250 g ai/ha
Procedure, shortened: as §1

corn (Zea mays) = assay: Test B pre/postemergence; conditions: Zea mays; for Corn plant response rating (crop injury, 0 = no effect, 100 = complete kill) at 250 g/ha: 250 g ai/ha
Procedure, shortened: as §1

[14] = tested on: lambsquarters (Chenopodium album); assay: Test B pre/postemergence; conditions: Chenopodium album; for pest or weed control at 62 g/ha: 62 g ai/ha; for pest or weed control at 250 g/ha: 250 g ai/ha
Procedure, shortened: as §1

[15] = pre-emergence, Preemergence, scale 0 to 100 (0 no effect, 100 complete control), read-out: Plant response rating, Wheat
[16] = pre-emergence, Preemergence, scale 0 to 100 (0 no effect, 100 complete control), read-out: Plant response rating, Barnyardgrass

CCOC(=O)c1nc(C2CC2)nc(N)c1Cl [Compound 4, ethyl 6-amino-5-chloro-2-cyclopropyl-4-pyrimidinecarboxylate]
30%: pest or weed control at 62 g/ha [7, 16]
90%: pest or weed control at 250 g/ha ([1]; 250 g ai/ha, scale 0 to 100, read-out: Plant response rating, Blackgrass) | pest or weed control at 1000 g/ha [4] | pest or weed control at 250 g/ha ([6]; pre-emergence, Preemergence, scale 0 to 100 (0 no effect, 100 complete control), read-out: Plant response rating, Velvetleaf) | pest or weed control at 250 g/ha ([7]; post-emergence, Postemergence, scale 0 to 100, read-out: Plant response rating, Barnyardgrass) | pest or weed control at 250 g/ha [7, 16] | pest or weed control at 250 g/ha ([8]; post-emergence, Postemergence, scale 0 to 100, read-out: Plant response rating, Foxtail, Giant) | pest or weed control at 62 g/ha ([9]; pre-emergence, Preemergence, scale 0 to 100, 0 no effect, 100 complete control, read-out: Plant response rating, Pigweed) | pest or weed control at 250 g/ha ([10]; post-emergence, Postemergence, scale 0 to 100, read-out: Plant response rating, Crabgrass) | pest or weed control at 250 g/ha ([10]; pre-emergence, Preemergence, scale 0 to 100 (0 no effect, 100 complete control), read-out: Plant response rating, Crabgrass) | pest or weed control at 62 g/ha ([11]; post-emergence, Postemergence, scale 0 to 100 (0 no effect, 100 complete control), read-out: Surinam Grass plant response rating) | pest or weed control at 250 g/ha ([11]; post-emergence, Postemergence, scale 0 to 100, read-out: Plant response rating, Surinam Grass) | pest or weed control at 250 g/ha ([11]; pre-emergence, Preemergence, scale 0 to 100 (0 no effect, 100 complete control), read-out: Plant response rating, Surinam Grass) | pest or weed control at 62 g/ha ([12]; post-emergence, Postemergence, scale 0 to 100 (0 no effect, 100 complete control), read-out: Cocklebur plant response rating) | pest or weed control at 62 g/ha ([13]; post-emergence, Postemergence, scale 0 to 100 (0 no effect, 100 complete control), read-out: Morningglory plant response rating) | Corn plant response rating (crop injury, 0 = no effect, 100 = complete kill) at 250 g/ha (corn (Zea mays); post-emergence, Postemergence, scale 0 to 100) | pest or weed control at 62 g/ha ([14]; pre-emergence, Preemergence, scale 0 to 100, 0 no effect, 100 complete control, read-out: Plant response rating, Lambsquarters)
50%: pest or weed control at 62 g/ha (wild oat (Avena fatua); 62 g ai/ha, scale 0 to 100 (0 no effect, 100 complete control), read-out: Oat, Wild plant response rating) | plant injury at 62 g/ha [5, 15] | plant injury at 62 g/ha (corn (Zea mays); post-emergence, Postemergence, 62 g ai/ha, scale 0 to 100 (0 no effect, 100 complete control), read-out: Corn plant response rating)
40%: plant injury at 62 g/ha ([5]; post-emergence, Postemergence, scale 0 to 100 (0 no effect, 100 complete control), read-out: Wheat plant response rating) | pest or weed control at 62 g/ha ([11]; pre-emergence, Preemergence, scale 0 to 100, 0 no effect, 100 complete control, read-out: Plant response rating, Surinam Grass)
70%: pest or weed control at 62 g/ha ([1]; 62 g ai/ha, scale 0 to 100 (0 no effect, 100 complete control), read-out: Blackgrass plant response rating) | plant injury at 250 g/ha [5, 15] | pest or weed control at 62 g/ha ([6]; post-emergence, Postemergence, scale 0 to 100 (0 no effect, 100 complete control), read-out: Velvetleaf plant response rating) | pest or weed control at 62 g/ha ([7]; post-emergence, Postemergence, scale 0 to 100 (0 no effect, 100 complete control), read-out: Barnyardgrass plant response rating) | pest or weed control at 62 g/ha ([10]; pre-emergence, Preemergence, scale 0 to 100, 0 no effect, 100 complete control, read-out: Plant response rating, Crabgrass)
100%: pest or weed control at 1000 g/ha [3] | pest or weed control at 250 g/ha ([6]; post-emergence, Postemergence, scale 0 to 100, read-out: Plant response rating, Velvetleaf) | pest or weed control at 62 g/ha ([9]; post-emergence, Postemergence, scale 0 to 100 (0 no effect, 100 complete control), read-out: Pigweed plant response rating) | pest or weed control at 250 g/ha ([9]; post-emergence, Postemergence, scale 0 to 100, read-out: Plant response rating, Pigweed) | pest or weed control at 250 g/ha ([9]; pre-emergence, Preemergence, scale 0 to 100 (0 no effect, 100 complete control), read-out: Plant response rating, Pigweed) | pest or weed control at 250 g/ha ([12]; post-emergence, Postemergence, scale 0 to 100, read-out: Plant response rating, Cocklebur) | pest or weed control at 250 g/ha ([12]; pre-emergence, Preemergence, scale 0 to 100 (0 no effect, 100 complete control), read-out: Plant response rating, Cocklebur) | pest or weed control at 250 g/ha ([13]; post-emergence, Postemergence, scale 0 to 100, read-out: Plant response rating, Morningglory) | pest or weed control at 250 g/ha ([13]; pre-emergence, Preemergence, scale 0 to 100 (0 no effect, 100 complete control), read-out: Plant response rating, Morningglory) | pest or weed control at 62 g/ha ([14]; post-emergence, Postemergence, scale 0 to 100 (0 no effect, 100 complete control), read-out: Lambsquarters plant response rating) | pest or weed control at 250 g/ha ([14]; post-emergence, Postemergence, scale 0 to 100, read-out: Plant response rating, Lambsquarters) | pest or weed control at 250 g/ha ([14]; pre-emergence, Preemergence, scale 0 to 100 (0 no effect, 100 complete control), read-out: Plant response rating, Lambsquarters)
10%: pest or weed control at 62 g/ha ([8]; pre-emergence, Preemergence, scale 0 to 100, 0 no effect, 100 complete control, read-out: Plant response rating, Foxtail, Giant)
60%: pest or weed control at 62 g/ha ([13]; pre-emergence, Preemergence, scale 0 to 100, 0 no effect, 100 complete control, read-out: Plant response rating, Morningglory)
0%: Corn plant response rating (crop injury, 0 = no effect, 100 = complete kill) at 62 g/ha (corn (Zea mays); pre-emergence, Preemergence, 62 g ai/ha, scale 0 to 100, 0 no effect, 100 complete control)
80%: pest or weed control at 250 g/ha (wild oat (Avena fatua); 250 g ai/ha, scale 0 to 100, read-out: Plant response rating, Oat, Wild) | pest or weed control at 1000 g/ha [2] | plant injury at 1000 g/ha (rice (Oryza sativa)) | plant injury at 250 g/ha ([5]; post-emergence, Postemergence, scale 0 to 100, read-out: Plant response rating, Wheat) | pest or weed control at 62 g/ha ([6]; pre-emergence, Preemergence, scale 0 to 100, 0 no effect, 100 complete control, read-out: Plant response rating, Velvetleaf) | pest or weed control at 62 g/ha ([8]; post-emergence, Postemergence, scale 0 to 100 (0 no effect, 100 complete control), read-out: Foxtail, Giant plant response rating) | pest or weed control at 250 g/ha ([8]; pre-emergence, Preemergence, scale 0 to 100 (0 no effect, 100 complete control), read-out: Plant response rating, Foxtail, Giant) | pest or weed control at 62 g/ha ([10]; post-emergence, Postemergence, scale 0 to 100 (0 no effect, 100 complete control), read-out: Crabgrass plant response rating) | pest or weed control at 62 g/ha ([12]; pre-emergence, Preemergence, scale 0 to 100, 0 no effect, 100 complete control, read-out: Plant response rating, Cocklebur) | Corn plant response rating (crop injury, 0 = no effect, 100 = complete kill) at 250 g/ha (corn (Zea mays); pre-emergence, Preemergence, scale 0 to 100 (0 no effect, 100 complete control))
